In patent US5225583A, “Alkyl-aryl 1,3-propanedione silicone derivative and an external preparation for skin with the derivative compounded therein” (Shiseido Co., Ltd., priority 1991, dated 1993):

Assay: Test for solubility of alkyl-aryl 1,3-propanedione silicone derivative in silicone-based oils and Squalene at 25° C.
Type: physicochemical
Details: Scwr (Squalene), 30% (w/w)
Description: A circle (O) mark is put to a compound which is completely dissolved under 25° C., and a cross (X) mark is put to a compound which makes the solution cloudy even a little.
With COc1ccc(C(=O)CC(=O)C(C)(C)C)cc1OCCC[Si](C)(O[Si](C)(C)C)O[Si](C)(C)C [Compound 3] the “Solubility, Scwr, 30%” value was “.largecircle”.
For COc1cc(C(=O)CC(=O)C(C)(C)C)cc(CCC[Si](C)(O[Si](C)(C)C)O[Si](C)(C)C)c1O [Compound 9], the “Solubility, Scwr, 30%” value was “.largecircle”.
In the case of COc1cc(C(=O)CC(=O)C(C)(C)C)ccc1OCC(C)C[Si](C)(O[Si](C)(C)C)O[Si](C)(C)C (centres unmarked) [Compound 7], the “Solubility, Scwr, 30%” value is reported as “.largecircle”.
With CCCCC(CC)C(=O)CC(=O)c1cc(CCC[Si](C)(O[Si](C)(C)C)O[Si](C)(C)C)c(OC)c(OC)c1 (centres unmarked) [Compound 6] the “Solubility, Scwr, 30%” value was “.largecircle”.
For COc1cc(C(=O)CC(=O)C(C)(C)C)ccc1OCCCCC[Si](C)(O[Si](C)(C)C)O[Si](C)(C)C [Compound 8], the “Solubility, Scwr, 30%” value was “.largecircle”.
With COc1cc(C(=O)CC(=O)C(C)(C)C)ccc1OCCC[Si](C)(C)O[Si](C)(C)C [Compound 1] the “Solubility, Scwr, 30%” value was “.largecircle”.
In the case of COc1cc(C(=O)CC(=O)C(C)(C)C)ccc1OCCC[Si](C)(O[Si](C)(C)C)O[Si](C)(C)C [Compound 2], the “Solubility, Scwr, 30%” value is reported as “.largecircle”.
With CCCCC(CC)C(=O)CC(=O)c1cc(CCC[Si](C)(O[Si](C)(C)C)O[Si](C)(C)C)c(OC)c(OC)c1 (centres unmarked) [Compound 5] the “Solubility, Scwr, 30%” value was “.largecircle”.

Same assay, conditions: Scwr (Squalene), 50% (w/w)
For COc1ccc(C(=O)CC(=O)C(C)(C)C)cc1OCCC[Si](C)(O[Si](C)(C)C)O[Si](C)(C)C [Compound 3], the “Solubility, Scwr, 50%” value was “.largecircle”.
With COc1cc(C(=O)CC(=O)C(C)(C)C)cc(CCC[Si](C)(O[Si](C)(C)C)O[Si](C)(C)C)c1O [Compound 9] the “Solubility, Scwr, 50%” value was “.largecircle”.
With COc1cc(C(=O)CC(=O)C(C)(C)C)ccc1OCC(C)C[Si](C)(O[Si](C)(C)C)O[Si](C)(C)C (centres unmarked) [Compound 7] the “Solubility, Scwr, 50%” value was “.largecircle”.
With CCCCC(CC)C(=O)CC(=O)c1cc(CCC[Si](C)(O[Si](C)(C)C)O[Si](C)(C)C)c(OC)c(OC)c1 (centres unmarked) [Compound 6] the “Solubility, Scwr, 50%” value was “.largecircle”.
For COc1cc(C(=O)CC(=O)C(C)(C)C)ccc1OCCCCC[Si](C)(O[Si](C)(C)C)O[Si](C)(C)C [Compound 8], the “Solubility, Scwr, 50%” value was “.largecircle”.
With COc1cc(C(=O)CC(=O)C(C)(C)C)ccc1OCCC[Si](C)(C)O[Si](C)(C)C [Compound 1] the “Solubility, Scwr, 50%” value was “.largecircle”.
For COc1cc(C(=O)CC(=O)C(C)(C)C)ccc1OCCC[Si](C)(O[Si](C)(C)C)O[Si](C)(C)C [Compound 2], the “Solubility, Scwr, 50%” value was “.largecircle”.
With CCCCC(CC)C(=O)CC(=O)c1cc(CCC[Si](C)(O[Si](C)(C)C)O[Si](C)(C)C)c(OC)c(OC)c1 (centres unmarked) [Compound 5] the “Solubility, Scwr, 50%” value was “.largecircle”.

Same assay, conditions: Silicone KF 56, 30% (w/w)
In the case of COc1ccc(C(=O)CC(=O)C(C)(C)C)cc1OCCC[Si](C)(O[Si](C)(C)C)O[Si](C)(C)C [Compound 3], the “Solubility, Silicon KF56, 30%” value is reported as “.largecircle”.
In the case of COc1cc(C(=O)CC(=O)C(C)(C)C)cc(CCC[Si](C)(O[Si](C)(C)C)O[Si](C)(C)C)c1O [Compound 9], the “Solubility, Silicon KF56, 30%” value is reported as “.largecircle”.
For COc1cc(C(=O)CC(=O)C(C)(C)C)ccc1OCC(C)C[Si](C)(O[Si](C)(C)C)O[Si](C)(C)C (centres unmarked) [Compound 7], the “Solubility, Silicon KF56, 30%” value was “.largecircle”.
For CCCCC(CC)C(=O)CC(=O)c1cc(CCC[Si](C)(O[Si](C)(C)C)O[Si](C)(C)C)c(OC)c(OC)c1 (centres unmarked) [Compound 6], the “Solubility, Silicon KF56, 30%” value was “.largecircle”.
In the case of COc1cc(C(=O)CC(=O)C(C)(C)C)ccc1OCCCCC[Si](C)(O[Si](C)(C)C)O[Si](C)(C)C [Compound 8], the “Solubility, Silicon KF56, 30%” value is reported as “.largecircle”.
In the case of COc1cc(C(=O)CC(=O)C(C)(C)C)ccc1OCCC[Si](C)(C)O[Si](C)(C)C [Compound 1], the “Solubility, Silicon KF56, 30%” value is reported as “.largecircle”.
In the case of COc1cc(C(=O)CC(=O)C(C)(C)C)ccc1OCCC[Si](C)(O[Si](C)(C)C)O[Si](C)(C)C [Compound 2], the “Solubility, Silicon KF56, 30%” value is reported as “.largecircle”.
In the case of CCCCC(CC)C(=O)CC(=O)c1cc(CCC[Si](C)(O[Si](C)(C)C)O[Si](C)(C)C)c(OC)c(OC)c1 (centres unmarked) [Compound 5], the “Solubility, Silicon KF56, 30%” value is reported as “.largecircle”.

Same assay, conditions: Silicone KF 56, 50% (w/w)
For COc1ccc(C(=O)CC(=O)C(C)(C)C)cc1OCCC[Si](C)(O[Si](C)(C)C)O[Si](C)(C)C [Compound 3], the “Solubility, Silicon KF56, 50%” value was “.largecircle”.
In the case of COc1cc(C(=O)CC(=O)C(C)(C)C)cc(CCC[Si](C)(O[Si](C)(C)C)O[Si](C)(C)C)c1O [Compound 9], the “Solubility, Silicon KF56, 50%” value is reported as “.largecircle”.
In the case of COc1cc(C(=O)CC(=O)C(C)(C)C)ccc1OCC(C)C[Si](C)(O[Si](C)(C)C)O[Si](C)(C)C (centres unmarked) [Compound 7], the “Solubility, Silicon KF56, 50%” value is reported as “.largecircle”.
In the case of CCCCC(CC)C(=O)CC(=O)c1cc(CCC[Si](C)(O[Si](C)(C)C)O[Si](C)(C)C)c(OC)c(OC)c1 (centres unmarked) [Compound 6], the “Solubility, Silicon KF56, 50%” value is reported as “.largecircle”.
For COc1cc(C(=O)CC(=O)C(C)(C)C)ccc1OCCCCC[Si](C)(O[Si](C)(C)C)O[Si](C)(C)C [Compound 8], the “Solubility, Silicon KF56, 50%” value was “.largecircle”.
For COc1cc(C(=O)CC(=O)C(C)(C)C)ccc1OCCC[Si](C)(C)O[Si](C)(C)C [Compound 1], the “Solubility, Silicon KF56, 50%” value was “.largecircle”.
In the case of COc1cc(C(=O)CC(=O)C(C)(C)C)ccc1OCCC[Si](C)(O[Si](C)(C)C)O[Si](C)(C)C [Compound 2], the “Solubility, Silicon KF56, 50%” value is reported as “.largecircle”.
For CCCCC(CC)C(=O)CC(=O)c1cc(CCC[Si](C)(O[Si](C)(C)C)O[Si](C)(C)C)c(OC)c(OC)c1 (centres unmarked) [Compound 5], the “Solubility, Silicon KF56, 50%” value was “.largecircle”.

Same assay, conditions: Silicone KF96, 30% (w/w)
For COc1ccc(C(=O)CC(=O)C(C)(C)C)cc1OCCC[Si](C)(O[Si](C)(C)C)O[Si](C)(C)C [Compound 3], the “Solubility, Sil. KF96, 30%” value was “.largecircle”.
For COc1cc(C(=O)CC(=O)C(C)(C)C)cc(CCC[Si](C)(O[Si](C)(C)C)O[Si](C)(C)C)c1O [Compound 9], the “Solubility, Sil. KF96, 30%” value was “.largecircle”.
For COc1cc(C(=O)CC(=O)C(C)(C)C)ccc1OCC(C)C[Si](C)(O[Si](C)(C)C)O[Si](C)(C)C (centres unmarked) [Compound 7], the “Solubility, Sil. KF96, 30%” value was “.largecircle”.
For CCCCC(CC)C(=O)CC(=O)c1cc(CCC[Si](C)(O[Si](C)(C)C)O[Si](C)(C)C)c(OC)c(OC)c1 (centres unmarked) [Compound 6], the “Solubility, Sil. KF96, 30%” value was “.largecircle”.
For COc1cc(C(=O)CC(=O)C(C)(C)C)ccc1OCCCCC[Si](C)(O[Si](C)(C)C)O[Si](C)(C)C [Compound 8], the “Solubility, Sil. KF96, 30%” value was “.largecircle”.
With COc1cc(C(=O)CC(=O)C(C)(C)C)ccc1OCCC[Si](C)(C)O[Si](C)(C)C [Compound 1] the “Solubility, Sil. KF96, 30%” value was “.largecircle”.
In the case of COc1cc(C(=O)CC(=O)C(C)(C)C)ccc1OCCC[Si](C)(O[Si](C)(C)C)O[Si](C)(C)C [Compound 2], the “Solubility, Sil. KF96, 30%” value is reported as “.largecircle”.
In the case of CCCCC(CC)C(=O)CC(=O)c1cc(CCC[Si](C)(O[Si](C)(C)C)O[Si](C)(C)C)c(OC)c(OC)c1 (centres unmarked) [Compound 5], the “Solubility, Sil. KF96, 30%” value is reported as “.largecircle”.

Same assay, conditions: Silicone KF96, 50% (w/w)
With COc1ccc(C(=O)CC(=O)C(C)(C)C)cc1OCCC[Si](C)(O[Si](C)(C)C)O[Si](C)(C)C [Compound 3] the “Solubility, Sil. KF96, 50%” value was “.largecircle”.
With COc1cc(C(=O)CC(=O)C(C)(C)C)ccc1OCC(C)C[Si](C)(O[Si](C)(C)C)O[Si](C)(C)C (centres unmarked) [Compound 7] the “Solubility, Sil. KF96, 50%” value was “.largecircle”.
With CCCCC(CC)C(=O)CC(=O)c1cc(CCC[Si](C)(O[Si](C)(C)C)O[Si](C)(C)C)c(OC)c(OC)c1 (centres unmarked) [Compound 6] the “Solubility, Sil. KF96, 50%” value was “.largecircle”.
In the case of COc1cc(C(=O)CC(=O)C(C)(C)C)ccc1OCCCCC[Si](C)(O[Si](C)(C)C)O[Si](C)(C)C [Compound 8], the “Solubility, Sil. KF96, 50%” value is reported as “.largecircle”.
With COc1cc(C(=O)CC(=O)C(C)(C)C)ccc1OCCC[Si](C)(C)O[Si](C)(C)C [Compound 1] the “Solubility, Sil. KF96, 50%” value was “.largecircle”.
For COc1cc(C(=O)CC(=O)C(C)(C)C)ccc1OCCC[Si](C)(O[Si](C)(C)C)O[Si](C)(C)C [Compound 2], the “Solubility, Sil. KF96, 50%” value was “.largecircle”.
For CCCCC(CC)C(=O)CC(=O)c1cc(CCC[Si](C)(O[Si](C)(C)C)O[Si](C)(C)C)c(OC)c(OC)c1 (centres unmarked) [Compound 5], the “Solubility, Sil. KF96, 50%” value was “.largecircle”.

Assay: Ultraviolet ray absorption spectrum
Type: physicochemical
Parameters: ε: unit not given beside the values
Details: at λmax
COc1cc(C(=O)CC(=O)C(C)(C)C)cc(CCC[Si](C)(O[Si](C)(C)C)O[Si](C)(C)C)c1O [Compound 9] gave a ε of 24000.
Work on COc1cc(C(=O)CC(=O)C(C)(C)C)ccc1OCC(C)C[Si](C)(O[Si](C)(C)C)O[Si](C)(C)C (centres unmarked) [Compound 7] yielded a ε of 27350.
For COc1cc(C(=O)CC(=O)C(C)(C)C)ccc1OCCCCC[Si](C)(O[Si](C)(C)C)O[Si](C)(C)C [Compound 8], the ε was 23220.
COc1cc(C(=O)CC(=O)C(C)(C)C)ccc1OCCC[Si](C)(C)O[Si](C)(C)C [Compound 1] showed a ε of 24090.
Compound COc1cc(C(=O)CC(=O)C(C)(C)C)ccc1OCCC[Si](C)(O[Si](C)(C)C)O[Si](C)(C)C [Compound 2] has a ε of 23550.
Compound CCCCC(CC)C(=O)CC(=O)c1cc(CCC[Si](C)(O[Si](C)(C)C)O[Si](C)(C)C)c(OC)c(OC)c1 (centres unmarked) [Compound 5] has a ε of 23500.

Same assay, conditions: ultraviolet ray absorption
In the case of COc1cc(C(=O)CC(=O)C(C)(C)C)cc(CCC[Si](C)(O[Si](C)(C)C)O[Si](C)(C)C)c1O [Compound 9], the λmax is reported as 342 nm.
For COc1cc(C(=O)CC(=O)C(C)(C)C)ccc1OCC(C)C[Si](C)(O[Si](C)(C)C)O[Si](C)(C)C (centres unmarked) [Compound 7], the λmax was 334 nm.
For COc1cc(C(=O)CC(=O)C(C)(C)C)ccc1OCCCCC[Si](C)(O[Si](C)(C)C)O[Si](C)(C)C [Compound 8], the λmax was 334 nm.
With COc1cc(C(=O)CC(=O)C(C)(C)C)ccc1OCCC[Si](C)(C)O[Si](C)(C)C [Compound 1] the λmax was 335 nm.
Compound COc1cc(C(=O)CC(=O)C(C)(C)C)ccc1OCCC[Si](C)(O[Si](C)(C)C)O[Si](C)(C)C [Compound 2] has a λmax of 334 nm.
With CCCCC(CC)C(=O)CC(=O)c1cc(CCC[Si](C)(O[Si](C)(C)C)O[Si](C)(C)C)c(OC)c(OC)c1 (centres unmarked) [Compound 5] the λmax was 334 nm.
